Experimental findings from US10016425B2, “Anti-ulcerative colitis compound” (KING SAUD UNIVERSITY, priority 2016, dated 2018) are described below.

Data set [1] deals with Liver and Kidney Functions. Description: Effect on liver and kidney functions in rats after 15 days oral dosing. Format: in vivo, male Wistar rats. Also on record: ALT / AST: dose or concentration left out as unconfirmed. Conditions: oral 15 days; for Blood Urea / ALT / AST / Creatinine: mean ± SD, n = 10; for hepatotoxic manifestation / nephrotoxic manifestations: no significant difference to control at 0.05 level; for ALT / AST / Creatinine: serum. The protocol:
(§1) The anti-ulcerative colitis compounds were tested on Swiss albino mice of both genders (26-30 g), as well as male Wistar rats (180-200 g). The animals were housed in standard polypropylene cages with wire mesh tops and maintained under standard conditions (temperature of 23±1.0° C., humidity of 55±10%, 12 h light/12 h dark cycle). They were fed with a standard pellet diet with water ad libitum and were allowed to adapt to the laboratory environment for one week before experimentation.
The male Wister rats were divided into two equal groups each having ten rats. […] After the examination period, 6 hours after the last dose blood samples were collected from the orbital plexus of rats, samples were left to clot at room temperature for 30 minutes and then centrifuged at 1000 rpm for 20 minutes. The collected sera were used for determination of the activity of both […] (AST) and alanine aminotransferase (ALT) as liver markers. Additionally, levels of blood urea and serum creatinine were also estimated as kidney markers.

The test system of data set [2] is Acetic Acid-induced Colitis. Description: Acetic acid-induced colitis in rats (prophylactic effect, macroscopic scoring). Format: in vivo, male Wistar rats. Conditions: for percent protection of control colitis: 50 mg/kg orally; for anti-ulcerative colitis activity (in words): administrated orally to rats, 50 mg/kg. The protocol:
as §1
In order to examine the effect of the treatment compounds on ulcerative colitis, five groups of six rats were used. Two groups received compounds 5 and 6 at a dose of 50 mg/kg of body weight. Three other groups of animals were used, with two receiving water orally and the third receiving dexamesathone at a dose of 0.1 mg/kg orally, serving as control, control colitis and standard groups, respectively. All medications were administrated for five successive days. Two hour after the last dose, ulcerative colitis was induced by slowly infusion of 2 mL (4%, v/v) of acetic acid in saline into the colon through a catheter. Two days after the induction of colitis, the animals were sacrificed and colonic segments (8 cm in length and 3 cm proximal to the anus) were excised, opened and were used for macroscopic scoring.
To assess colonic lesions, the colon specimens were weighted and the wet weight/length ratio was calculated for all of the animals. The specimens were examined under a dissecting microscope and mucosal lesions were quantified by the scoring system (0-5): 0=no damage, 1=local edema and inflammation without ulcers; 2=one ulcer without inflammation; 3=one to two ulcers with inflammation and lesion diameter <1 cm; 4=more than two ulcers with lesion diameter 1-2 cm; 5=severe ulceration with lesion diameter >2 cm.
Ulcer area was measured using a plane glass square. Each cell on the glass square was 1 mm^2 in area and the number of cells were counted and the ulcer area was determined for each colon. Ulcer index was measured by summing the lesion score and the ulcer area for each colon specimen. All values were expressed as mean±S.D. Statistical analysis was performed using SPSS 10. Statistical significance of differences between two means was assessed by unpaired student's T-test. Differences at p<0.05, 0.01, and 0.001 were considered statistically significant.

In data set [3] the test system is Swiss albino mice. The following applies: mouse, in vivo. The protocol:
as §1
In order to determine the oral median lethal dose (LD50) of the anti-ulcerative colitis compound, the Swiss albino mice (in groups of six), received one of 50, 100, 500, or 1000 mg/kg doses of the target compound. Control animals received the pharmaceutical vehicle only and were kept under the same conditions. Signs of acute toxicity and the number of deaths per dose within 24 hours were recorded.

Turning to `COc1cc(/C=N/n2c(-c3ccc(C)cc3)nc3ccccc3c2=O)ccc1O` [Compound 5, 3-[(4-hydroxy-3-methoxy-benzylidene)-amino]-2-p-tolyl-3H-quinazolin-4-one], in data set [1], the “Blood Urea” value came to 65.50 ± 1.9 mg/dL, the hepatotoxic manifestation entry is “do not result in hepatotoxic manifestation”, the nephrotoxic manifestations result is reported as “no apparent nephrotoxic manifestations” and the ALT is recorded as 38.67 ± 0.22 U/l. In data set [1], this compound returned an AST of 63.23 ± 0.39 U/l and a Creatinine of 0.85 ± 0.02 mg/dL. In data set [2], the “percent protection of control colitis” value worked out at 51.2% and the “anti-ulcerative colitis activity (in words)” value is listed as “potent anti-ulcerative colitis activity”. Moreover, the “behavioral changes and/or mortality in mice” value in data set [3] is on record as “did not produce any behavioral changes and/or mortality”.

As to `COc1cc(/C=N/n2c(-c3ccc(C)cc3)nc3ccccc3c2=O)cc(OC)c1OC` [Compound 6, 2-p-tolyl-3-[3,4,5-trimethoxy-benzylidene-amino]-3H-quinazolin-4-one], in data set [1], the “Blood Urea” value came out at 65.50 ± 1.9 mg/dL, the hepatotoxic manifestation result is given as “do not result in hepatotoxic manifestation”, the nephrotoxic manifestations entry is on record as “no apparent nephrotoxic manifestations” and the ALT came to 38.67 ± 0.22 U/l. In data set [1], this compound came in with an AST of 63.23 ± 0.39 U/l and a Creatinine of 0.85 ± 0.02 mg/dL. Also, in data set [2], the “percent protection of control colitis” value is listed as 61.8% and the “anti-ulcerative colitis activity (in words)” value is on record as “potent anti-ulcerative colitis activity”. In addition, the “behavioral changes and/or mortality in mice” value in data set [3] was “did not produce any behavioral changes and/or mortality”.

Compound `C[C@@H]1C[C@H]2[C@@H]3CCC4=CC(=O)C=C[C@]4(C)[C@@]3(F)[C@@H](O)C[C@]2(C)[C@@]1(O)C(=O)CO` [Dexamethasone, reference compound] returned a percent protection in data set [2] (0.1 mg/kg orally) of 72.2%.
